SMILES strings stand for the structures.

The source of these data is publication PMC12399569, “Disruption of Spike Priming in Virus Entry: Tetrandrine as a Pan‐Coronavirus Inhibitor” (MedComm, 2025).

Holding throughout (type): binding
In experiment [1] the target is T1, hTMPRSS2 (Homo sapiens, UniProt O15393).
T1 construct: gene TMPRSS2; purified protein; immobilised on CM5 chip
In words: SPR (CM5 chip, hTMPRSS2 immobilised). From the text: SPR (CM5 chip, hTMPRSS2 immobilised) on hTMPRSS2 | Through SPR assay, we validated that tetrandrine could also bind to TMPRSS2

Experiment [2] deals with T2, HCoV-OC43 Spike (Human coronavirus OC43, UniProt P36334).
T2 construct: gene S
In words: SPR (Reichert4, CM5 chip, Spike immobilised). From the text: SPR (Reichert4, CM5 chip, Spike immobilised) on HCoV-OC43 Spike | we observed its interaction with the Spike proteins of various coronaviruses in vitro (Figure 5C)

In experiment [3] the target is T3, HCoV-229E Spike (Human coronavirus 229E, UniProt P15423).
T3 construct: gene S
In words: SPR (Reichert4, CM5 chip, Spike immobilised). From the text:
SPR (Reichert4, CM5 chip, Spike immobilised) on HCoV-229E Spike | we observed its interaction with the Spike proteins of various coronaviruses in vitro (Figure 5C)

T1 sequence (O15393 whole entry): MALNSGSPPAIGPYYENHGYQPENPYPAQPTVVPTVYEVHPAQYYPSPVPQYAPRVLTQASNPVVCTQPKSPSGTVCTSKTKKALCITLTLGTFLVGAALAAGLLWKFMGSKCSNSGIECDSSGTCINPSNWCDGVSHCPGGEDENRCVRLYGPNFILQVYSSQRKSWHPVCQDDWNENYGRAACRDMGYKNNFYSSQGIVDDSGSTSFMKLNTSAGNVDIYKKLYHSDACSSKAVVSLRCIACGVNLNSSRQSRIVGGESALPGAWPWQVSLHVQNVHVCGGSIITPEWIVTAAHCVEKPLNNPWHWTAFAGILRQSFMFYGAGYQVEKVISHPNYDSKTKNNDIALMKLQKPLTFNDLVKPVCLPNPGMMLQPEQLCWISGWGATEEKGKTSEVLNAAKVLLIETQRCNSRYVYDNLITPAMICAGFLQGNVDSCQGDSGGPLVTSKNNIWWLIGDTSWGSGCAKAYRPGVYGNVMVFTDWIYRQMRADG
T3 sequence (P15423 16-1173): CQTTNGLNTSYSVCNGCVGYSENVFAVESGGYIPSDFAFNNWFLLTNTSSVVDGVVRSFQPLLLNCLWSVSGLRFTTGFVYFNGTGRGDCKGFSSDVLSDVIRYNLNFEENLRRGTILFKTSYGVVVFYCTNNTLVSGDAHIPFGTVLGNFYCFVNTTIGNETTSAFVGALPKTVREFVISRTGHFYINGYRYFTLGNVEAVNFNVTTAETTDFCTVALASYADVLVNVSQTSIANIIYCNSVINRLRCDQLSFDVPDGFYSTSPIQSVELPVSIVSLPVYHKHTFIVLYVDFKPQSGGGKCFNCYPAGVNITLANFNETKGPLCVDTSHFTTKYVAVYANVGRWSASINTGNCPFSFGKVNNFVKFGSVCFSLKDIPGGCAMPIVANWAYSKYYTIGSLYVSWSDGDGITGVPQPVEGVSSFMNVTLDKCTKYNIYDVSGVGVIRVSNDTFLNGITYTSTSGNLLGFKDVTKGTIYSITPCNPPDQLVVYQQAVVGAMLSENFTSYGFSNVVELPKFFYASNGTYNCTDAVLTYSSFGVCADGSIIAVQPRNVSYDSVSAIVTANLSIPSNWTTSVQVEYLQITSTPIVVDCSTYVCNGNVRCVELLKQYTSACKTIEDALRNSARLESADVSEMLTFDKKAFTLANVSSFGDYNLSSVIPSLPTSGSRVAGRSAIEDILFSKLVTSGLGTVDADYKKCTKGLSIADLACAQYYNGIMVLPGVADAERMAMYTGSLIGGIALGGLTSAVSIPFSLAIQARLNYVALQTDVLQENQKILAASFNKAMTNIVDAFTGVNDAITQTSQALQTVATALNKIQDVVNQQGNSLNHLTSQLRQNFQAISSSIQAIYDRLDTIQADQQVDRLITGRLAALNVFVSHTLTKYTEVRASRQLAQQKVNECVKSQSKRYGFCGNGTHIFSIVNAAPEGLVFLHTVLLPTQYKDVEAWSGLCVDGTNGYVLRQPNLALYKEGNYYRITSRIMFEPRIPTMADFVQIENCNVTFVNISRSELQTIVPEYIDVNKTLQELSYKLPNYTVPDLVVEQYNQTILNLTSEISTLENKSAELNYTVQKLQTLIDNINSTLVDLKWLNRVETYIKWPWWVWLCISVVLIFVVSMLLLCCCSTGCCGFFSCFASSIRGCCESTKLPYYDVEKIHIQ
T2 sequence (P36334 14-1353): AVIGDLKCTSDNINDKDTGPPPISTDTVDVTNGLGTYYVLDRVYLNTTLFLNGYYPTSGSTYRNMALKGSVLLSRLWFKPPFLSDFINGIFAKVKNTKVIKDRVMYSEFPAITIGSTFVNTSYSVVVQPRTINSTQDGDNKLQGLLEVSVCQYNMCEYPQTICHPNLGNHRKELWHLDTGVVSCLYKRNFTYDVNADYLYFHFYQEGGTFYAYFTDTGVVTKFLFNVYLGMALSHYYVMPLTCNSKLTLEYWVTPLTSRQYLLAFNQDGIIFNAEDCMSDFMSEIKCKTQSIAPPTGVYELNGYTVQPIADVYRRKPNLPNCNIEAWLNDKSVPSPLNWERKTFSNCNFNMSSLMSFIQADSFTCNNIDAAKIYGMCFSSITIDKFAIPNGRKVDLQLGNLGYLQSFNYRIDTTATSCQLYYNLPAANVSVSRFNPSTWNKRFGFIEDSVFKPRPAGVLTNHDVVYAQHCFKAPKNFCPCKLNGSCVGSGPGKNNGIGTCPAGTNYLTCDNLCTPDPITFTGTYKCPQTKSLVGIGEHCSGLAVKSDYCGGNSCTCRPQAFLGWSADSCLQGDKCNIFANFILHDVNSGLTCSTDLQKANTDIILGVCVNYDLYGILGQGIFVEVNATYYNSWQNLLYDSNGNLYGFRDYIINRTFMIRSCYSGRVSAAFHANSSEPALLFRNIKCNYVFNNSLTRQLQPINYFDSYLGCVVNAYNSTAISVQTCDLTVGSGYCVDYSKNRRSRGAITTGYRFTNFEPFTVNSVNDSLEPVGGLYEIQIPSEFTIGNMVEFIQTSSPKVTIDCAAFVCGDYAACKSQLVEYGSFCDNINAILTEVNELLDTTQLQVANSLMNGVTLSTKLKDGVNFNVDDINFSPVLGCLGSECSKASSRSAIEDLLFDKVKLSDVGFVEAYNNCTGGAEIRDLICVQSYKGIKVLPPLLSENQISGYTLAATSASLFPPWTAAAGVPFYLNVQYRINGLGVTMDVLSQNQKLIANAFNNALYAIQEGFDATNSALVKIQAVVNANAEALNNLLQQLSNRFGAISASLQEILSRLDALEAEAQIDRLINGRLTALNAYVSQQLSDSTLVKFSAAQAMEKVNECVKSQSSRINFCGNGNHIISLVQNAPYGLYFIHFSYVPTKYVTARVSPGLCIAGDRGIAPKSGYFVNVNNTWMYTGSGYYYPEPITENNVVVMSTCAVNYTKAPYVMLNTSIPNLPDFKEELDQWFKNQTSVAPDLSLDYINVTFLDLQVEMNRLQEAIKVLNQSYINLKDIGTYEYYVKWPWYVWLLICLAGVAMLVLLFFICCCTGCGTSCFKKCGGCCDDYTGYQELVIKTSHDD

By Kd is commonly meant the equilibrium constant for the complex coming apart. Take `COc1ccc2cc1Oc1ccc(cc1)C[C@H]1c3cc(c(OC)cc3CCN1C)Oc1c(OC)c(OC)cc3c1[C@H](C2)N(C)CC3` [tetrandrine]: the results for the Kd in experiment [1], in experiment [2] and in experiment [3] were 4.59 µM, about 21.3 µM and about 0.53 µM, respectively.
